Measurements: patent US8952204B2, “Sulfonium salt, method for producing the same, and photoacid generator” (DSP Gokyo Food & Chemical Co., Ltd., priority 2012, dated 2015)

Tests used:
[1] = Solubility in PGMEA (amount of PGMEA necessary for dissolving 100 mg test compound); assay type: physicochemical; conditions: 20±5° C., after 30 minutes, 16 mL or less evaluated as desirable
Protocol: To the sulfonium salt compound to be measured (test compound; 100 mg each) was added PGMEA, and a strong shaking for 30 seconds was repeated at 20±5° C. every 5 minutes. In this way, the amount of PGMEA necessary for dissolving the test compound after 30 minutes was measured. Here, “dissolving” means to reach the state where no insoluble matter can be observed by visual inspection, specifically, means that the resultant solution is clear, or a mixture in an arbitrary ratio becomes transparent.
In Table 1 below, the compounds that require PGMEA in an amount of 16 mL or less were evaluated as having desirable properties as a current target compound.

[2] = Measurement of ultraviolet-visible absorption spectrum (molecular extinction coefficient at 365 nm); assay type: physicochemical; conditions: 1×10^−4 mol/L acetonitrile solution; 50 to 2000 evaluated as desirable
Protocol: (Measurement of Ultraviolet-Visible Absorption Spectrum)
A 1×10^−4 mol/L acetonitrile solution of each test compound was prepared, and the molecular extinction coefficient at 365 nm in the ultraviolet-visible absorption spectrum was measured using an ultraviolet-visible spectrophotometer (UV-2400PC, manufactured by SHIMADZU CORPORATION). […] Considering that light should be transmitted to a deep portion in a thick film, compounds with a molecular extinction coefficient at 365 nm (i-line) of 50 to 2000 were evaluated as a compound having desirable properties.

SMILES	PGMEA (mL): amount of PGMEA necessary for dissolving test compound [1] [mL]	Molecular Extinction Coefficient (365 nm) [2]
CC1(C)[C@@H]2CC[C@@]1(CS(=O)(=O)[O-])C(=O)C2.c1ccc([S+](c2ccccc2)c2ccccc2)cc1 [Comparative Example Compound 1, triphenylsulfonium (1S,4R)-7,7-dimethyl-2-oxobicyclo[2.2.1]heptane-1-yl methanesulfonate]	>160	0
CC1(C)[C@@H]2CC[C@@]1(CS(=O)(=O)[O-])C(=O)C2.CCCCOc1ccc2ccc(OCCCC)c([S+](CCCC)CCCC)c2c1 [Example Compound 1, 1-(2,7-di-n-butoxynaphthyl)di-n-butyl sulfonium (1S,4R)-7,7-dimethyl-2-oxobicyclo[2.2.1]heptane-1-yl methanesulfonate]	11	640
